Here are results for 2 compounds from patent US7179805B2, “7-amino alkylidenyl-heterocyclic quinolones and naphthyridones” (Janssen Pharmaceutica N.V., priority 2003, dated 2007).

The structures appear in SMILES notation.

For assay [1], the system named is Streptococcus pneumoniae ATCC 49619. Description: MIC, microdilution broth method (NCCLS). The assay is classed as cell-based. The settings on record: ATCC49619; organism E: Streptococcus pneumoniae ATCC 49619; 35° C., 16–20 hours. As for the experimental part: (§1) Minimal inhibitory concentration (MIC) has been an indicator of in vitro antibacterial activity widely used in the art. The in vitro antimicrobial activity of the compounds was determined by the microdilution broth method following the test method from the National Committee for Clinical Laboratory Standards (NCCLS). This method is described in the NCCLS Document M7-A4, Vol.17, No.2, “Methods for Dilution Antimicrobial Susceptibility Test for Bacteria that Grow Aerobically—Fourth Edition”, which is incorporated herein by reference.
(§2) In this method two-fold serial dilutions of drug in cation adjusted Mueller-Hinton broth are added to wells in microdilution trays. The test organisms are prepared by adjusting the turbidity of actively growing broth cultures so that the final concentration of test organism after it is added to the wells is approximately 5×10^4 CFU/well.
(§3) Following inoculation of the microdilution trays, the trays are incubated at 35° C. for 16–20 hours and then read. […] The amount of growth in the wells containing the test compound is compared with the amount of growth in the growth-control wells (no test compound) used in each tray. As set forth in Table 5, compounds of the present invention were tested against a variety of pathogenic bacteria resulting in a range of activities depending on the organism tested.
In general terms: Dilution methods test growth across graded concentrations, often in twofold steps.

The subject of assay [2] is Staphylococcus aureus OC4172. In words: MIC, microdilution broth method (NCCLS). It is filed as cell-based. The note with it: organism A: Staphylococcus aureus OC4172; 35° C., 16–20 hours. As for the experimental part: as §1, §2, §3

As usually defined, the MIC is the lowest concentration found to suppress growth. A high value points to a less susceptible organism. With `NCC(F)=C1CCN(c2cc3c(cc2F)c(=O)c(C(=O)O)cn3C2CC2)CC1.O=C(O)C(F)(F)F` [Compound 5, 7-[4-(2-Amino-1-fluoro-ethylidene)piperidin-1-yl]-1-cyclopropyl-6-fluoro-4-oxo-1,4-dihydroquinoline-3-carboxylic acid trifluoroacetic acid salt], inhibition of growth in assay [1] (MIC) required 0.06 µg/mL.
As for `CNCC=C1CCN(c2c(F)cc3c(=O)c(C(=O)O)cn(C4CC4)c3c2OC)CC1.O=C(O)C(F)(F)F` [Compound 221, 1-Cyclopropyl-6-fluoro-8-methoxy-7-[4-(2-methylaminoethylidene)piperidin-1-yl]-4-oxo-1,4-dihydroquinoline-3-carboxylic acid trifluoroacetic acid salt], the MIC in assay [2] is 0.12 µg/mL; in assay [1], 0.5 µg/mL.
